From ChEMBL document CHEMBL1152075, “Synthesis and SAR of diiodotyrosine-derived glycine-site N-methyl-D-aspartate receptor ligands” (Bioorg Med Chem Lett, 1996)

Molecular target: Glutamate NMDA receptor
Test: Ability to displace [3H]L-689560 from NMDA receptor glycine site in rat brain membranes
Format: cell membranes

SMILES | IC50 [µM]
N[C@H](Cc1cc(I)c(OCCc2ccccc2)c(I)c1)C(=O)O | 0.51
N[C@H](Cc1ccc(OCCc2ccccc2)c(I)c1)C(=O)O | 7.3
N[C@H](Cc1cc(I)c(OCCc2ccncc2)c(I)c1)C(=O)O | 0.46
NC(Cc1cc(I)c(OCCc2ccc(O)cc2)c(I)c1)C(=O)O (configuration not stated) | 0.9
CC(=O)N[C@H](Cc1cc(I)c(OCCc2ccc(O)cc2)c(I)c1)C(=O)O | > 100
N[C@H](Cc1ccc(OCCc2ccccc2)cc1)C(=O)O | 100
N[C@H](Cc1cc(I)c(O)c(I)c1)C(=O)O | 100
CCOc1c(I)cc(C[C@@H](N)C(=O)O)cc1I | 1.5
N[C@H](Cc1cc(I)c(OCc2ccccc2)c(I)c1)C(=O)O | 0.79
N[C@@H](Cc1cc(I)c(OCCc2ccc(O)cc2)c(I)c1)C(=O)O | > 100
N[C@H](Cc1cc(I)c(OCCc2cccc(O)c2)c(I)c1)C(=O)O | 0.35
COC(=O)[C@H](N)Cc1cc(I)c(OCCc2ccc(O)cc2)c(I)c1 | 100
N[C@H](Cc1cc(I)c(Oc2ccc(O)cc2)c(I)c1)C(=O)O | 4.1
N[C@H](Cc1cc(I)c(Oc2cc(I)c(O)c(I)c2)c(I)c1)C(=O)O [DEXTROTHYROXINE] | 0.33

Species on record: Rattus norvegicus
Test: In vitro antagonist potency was determined by blockade of NMDA- induced depolarizations on rat cortical slices
Format: functional

SMILES | Kb [µM]
N[C@H](Cc1cc(I)c(OCCc2ccncc2)c(I)c1)C(=O)O | 0.67
N[C@H](Cc1cc(I)c(OCCc2ccc(O)cc2)c(I)c1)C(=O)O | 2.2
N[C@H](Cc1cc(I)c(OCCc2cccc(O)c2)c(I)c1)C(=O)O | 2.5
